Measured values from patent US6465654B2, “Process for preparing 1-substituted, 2-substituted 1H-imidazo[4, 5-c]quinoline-4-amines” (3M Innovative Properties Company, priority 1991, dated 2002).

Key:
interferon-α = experiment: Interferon-α induction in human cells, PBM; assay type: cell-based; conditions: 24 hours
interferon = experiment: Interferon induction in mice; assay type: in vivo; conditions: mouse serum
Description: One hour later blood samples are withdrawn from the first group. The samples are pooled then centrifuged. The serum is removed from the centrifuge tube, split into two portions, then placed in freezing vials and maintained at −70° C. until analysis. This procedure is repeated at 2 hours with the second group of mice and at 4 hours with the third group of mice. Samples are assayed as described above in connection with the analysis of interferon induction in human cells. The results are expressed in the table below as α/β reference units/mL based on the value obtained for a mouse MU-1-IF standard. Results are shown in the table below wherein results designated as “<” a certain number indicate that interferon was not detectable in amounts above the lower sensitivity level of the assay.

Compound | Interferon-α induction (interferon-α; dose concentration 0.01 μg/mL) | Interferon-α induction (interferon-α; dose concentration 0.05 μg/mL) | Interferon-α induction (interferon-α; dose concentration 0.10 μg/mL) | Interferon-α induction (interferon-α; dose concentration 0.50 μg/mL) | Interferon-α induction (interferon-α; dose concentration 1.0 μg/mL) | Interferon-α induction (interferon-α; dose concentration 5.0 μg/mL) | Interferon induction in mice (interferon; oral 0.3 mg/kg, 1 hr) | Interferon induction in mice (interferon; oral 0.3 mg/kg, 2 hr) | Interferon induction in mice (interferon; oral 0.3 mg/kg, 4 hr) | Interferon induction in mice (interferon; oral 1 mg/kg, 1 hr) | Interferon induction in mice (interferon; oral 1 mg/kg, 2 hr) | Interferon induction in mice (interferon; oral 1 mg/kg, 4 hr) | Interferon induction in mice (interferon; oral 3 mg/kg, 1 hr) | Interferon induction in mice (interferon; oral 3 mg/kg, 2 hr) | Interferon induction in mice (interferon; oral 3 mg/kg, 4 hr) | Interferon induction in mice (interferon; oral 10 mg/kg, 1 hr) | Interferon induction in mice (interferon; oral 10 mg/kg, 2 hr) | Interferon induction in mice (interferon; oral 10 mg/kg, 4 hr)
COCc1nc2c(N)nc3ccccc3c2n1Cc1ccccc1 [Example 104, 2-Methoxymethyl-1-phenylmethyl-1H-imidazo[4,5-c]quinolin-4-amine] | <2.7 α Reference Units/mL | <2.7 α Reference Units/mL | 310 α Reference Units/mL | 180 α Reference Units/mL | 140 α Reference Units/mL | 310 α Reference Units/mL | <380 Reference Units/mL | <380 Reference Units/mL | <380 Reference Units/mL | ˜780 Reference Units/mL | ˜780 Reference Units/mL | ˜380 Reference Units/mL | ≦660 Reference Units/mL | 2200 Reference Units/mL | <380 Reference Units/mL | 3400 Reference Units/mL | 4500 Reference Units/mL | ≦660 Reference Units/mL
4-Amino-α-butyl-1-(2-methylpropyl)-1H-imidazo[4,5-c]quinoline-2-methanol Hemihydrate [Example 60] |  |  | 1700 α Reference Units/mL | 430 α Reference Units/mL | 570 α Reference Units/mL | 570 α Reference Units/mL | 120 Reference Units/mL | 870 Reference Units/mL | ≦56 Reference Units/mL | 290 Reference Units/mL | 1500 Reference Units/mL | 120 Reference Units/mL | 380 Reference Units/mL | 870 Reference Units/mL | 290 Reference Units/mL | 870 Reference Units/mL | 3400 Reference Units/mL | 1100 Reference Units/mL
COCc1nc2c(N)nc3ccccc3c2n1CC(C)(C)O [Example 111, 4-Amino-α,α-dimethyl-2-methoxymethyl-1H-imidazo[4,5-c]quinoline-1-ethanol] | 190 α Reference Units/mL | 65 α Reference Units/mL | 65 α Reference Units/mL | 49 α Reference Units/mL | 55 α Reference Units/mL | 61 α Reference Units/mL |  |  |  |  |  |  |  |  |  |  |  | 
CCOCc1nc2c(N)nc3ccccc3c2n1CCC(C)C.Cl [Example 109, 2-Ethoxymethyl-1-(3-methylbutyl)-1H-imidazo[4,5-c]quinolin-4-amine Hydrochloride] | <1.4 α Reference Units/mL | 1000 α Reference Units/mL | 1000 α Reference Units/mL | 97 α Reference Units/mL | 83 α Reference Units/mL | 78 α Reference Units/mL |  |  |  |  |  |  |  |  |  |  |  | 
CC(C)Cn1c(C(O)c2ccc(Cl)cc2)nc2c(N)nc3ccccc3c21 (stereo not drawn) [Example 55, 4-Amino-α-(4-chlorophenyl)-1-(2-methylpropyl)-1H-imidazo[4,5-c]quinoline-2-methanol] |  |  | <4 α Reference Units/mL | 1500 α Reference Units/mL | 1500 α Reference Units/mL | 490 α Reference Units/mL |  |  |  |  |  |  |  |  |  |  |  | 
